Results reported in ChEMBL document CHEMBL1201862, “PubChem BioAssay data set” (2004).
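In this assay, cells in 96-well plates receive the compound at five concentrations for 48 hours. Endpoints are linearly interpolated between the surrounding concentrations. GI50: concentration for 50% inhibition of growth.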 Active and inactive are the calls of the source. No stated cut-off is given here; in the data, active = GI50 up to about 1.1 µM and inactive = higher.

Experiments:
Assay in all cases: NCI tumour cell line growth inhibition, 48 h
786-0 = test system: 786-0
A498 = test system: A498
A549 = test system: A549
ACHN = test system: ACHN
CAKI-1 = test system: CAKI-1
CCRF-CEM = test system: CCRF-CEM
COLO 205 = test system: COLO 205
DU-145 = test system: DU-145
EKVX = test system: EKVX
HCC 2998 = test system: HCC 2998
HCT-15 = test system: HCT-15
HL-60 = test system: HL-60
HOP-62 = test system: HOP-62
HOP-92 = test system: HOP-92
HT-29 = test system: HT-29
Hs-578T = test system: Hs-578T
IGROV-1 = test system: IGROV-1
K562 = test system: K562
KM12 = test system: KM12
LOX IMVI = test system: LOX IMVI
M14 = test system: M14
MCF7 = test system: MCF7
MDA-MB-231 = test system: MDA-MB-231
MDA-MB-435 = test system: MDA-MB-435
MDA-N = test system: MDA-N
MOLT-4 = test system: MOLT-4
Malme-3M = test system: Malme-3M
NCI-H226 = test system: NCI-H226
NCI-H23 = test system: NCI-H23
NCI-H460 = test system: NCI-H460
NCI-H522 = test system: NCI-H522
NCI/ADR-RES = test system: NCI/ADR-RES
OVCAR-3 = test system: OVCAR-3
OVCAR-4 = test system: OVCAR-4
OVCAR-5 = test system: OVCAR-5
OVCAR-8 = test system: OVCAR-8
PC-3 = test system: PC-3
RPMI-8226 = test system: RPMI-8226
RXF 393 = test system: RXF 393
SF-268 = test system: SF-268
SF-295 = test system: SF-295
SF-539 = test system: SF-539
SK-MEL-28 = test system: SK-MEL-28
SK-MEL-2 = test system: SK-MEL-2
SK-MEL-5 = test system: SK-MEL-5
SK-OV-3 = test system: SK-OV-3
SNB-19 = test system: SNB-19
SNB-75 = test system: SNB-75
SR = test system: SR
SW-620 = test system: SW-620
T47D = test system: T47D
TK-10 = test system: TK-10
U-251 = test system: U-251
UACC-257 = test system: UACC-257
UACC-62 = test system: UACC-62
UO-31 = test system: UO-31
HCT-116 = test system: HCT-116
SN12C = test system: SN12C

Measured: GI50

COC/C=C\[C@]1(O)CCCC[C@@H]1CC(OC)OC
> 100 µM: HCT-15
inactive: 786-0 > 100 µM | A498 > 100 µM | A549 > 100 µM | ACHN > 100 µM | CAKI-1 > 100 µM | CCRF-CEM 37.1 µM | COLO 205 > 100 µM | DU-145 > 100 µM | EKVX > 100 µM | HCC 2998 > 100 µM | HL-60 20.4 µM | HOP-62 > 100 µM | HOP-92 > 100 µM | HT-29 > 100 µM | Hs-578T > 100 µM | IGROV-1 > 100 µM | K562 43.5 µM | KM12 > 100 µM | LOX IMVI > 100 µM | M14 > 100 µM | MCF7 > 100 µM | MDA-MB-231 > 100 µM | MDA-MB-435 > 100 µM | MDA-N > 100 µM | MOLT-4 23.4 µM | Malme-3M > 100 µM | NCI-H226 > 100 µM | NCI-H23 > 100 µM | NCI-H460 > 100 µM | NCI-H522 67.5 µM | NCI/ADR-RES > 100 µM | OVCAR-3 > 100 µM | OVCAR-4 > 100 µM | OVCAR-5 > 100 µM | OVCAR-8 > 100 µM | PC-3 > 100 µM | RPMI-8226 97.7 µM | RXF 393 > 100 µM | SF-268 > 100 µM | SF-295 > 100 µM | SF-539 > 100 µM | SK-MEL-28 > 100 µM | SK-MEL-2 > 100 µM | SK-MEL-5 > 100 µM | SK-OV-3 > 100 µM | SNB-19 > 100 µM | SNB-75 > 100 µM | SR 81.1 µM | SW-620 > 100 µM | T47D > 100 µM | TK-10 > 100 µM | U-251 > 100 µM | UACC-257 > 100 µM | UACC-62 > 100 µM | UO-31 > 100 µM

CSCC[C@H](NC(=O)[C@H](CC(C)C)NC(=O)[C@@H](Cc1ccccc1)NC(=O)CNC(=O)[C@@H](NC(=O)[C@H](C)NC(=O)[C@H](Cc1c[nH]c2ccccc12)NC(=O)[C@H](CCC(N)=O)NC(=O)[C@H](N)CC(N)=O)C(C)C)C(N)=O
inactive: 786-0 > 12.5 µM | A498 > 12.5 µM | A549 > 12.5 µM | ACHN > 12.5 µM | CAKI-1 > 12.5 µM | CCRF-CEM > 12.5 µM | COLO 205 > 12.5 µM | DU-145 > 12.5 µM | EKVX > 12.5 µM | HCC 2998 > 12.5 µM | HCT-116 > 12.5 µM | HL-60 > 12.5 µM | HOP-62 > 12.5 µM | HOP-92 > 12.5 µM | HT-29 > 12.5 µM | Hs-578T > 12.5 µM | IGROV-1 > 12.5 µM | K562 > 12.5 µM | KM12 > 12.5 µM | LOX IMVI > 12.5 µM | M14 > 12.5 µM | MCF7 > 12.5 µM | MDA-MB-231 > 12.5 µM | MDA-MB-435 > 12.5 µM | MDA-N > 12.5 µM | MOLT-4 > 12.5 µM | Malme-3M > 12.5 µM | NCI-H226 > 12.5 µM | NCI-H23 > 12.5 µM | NCI-H460 > 12.5 µM | NCI/ADR-RES > 12.5 µM | OVCAR-3 > 12.5 µM | OVCAR-4 > 12.5 µM | OVCAR-5 > 12.5 µM | OVCAR-8 > 12.5 µM | PC-3 > 12.5 µM | RPMI-8226 > 12.5 µM | RXF 393 > 12.5 µM | SF-268 > 12.5 µM | SF-295 > 12.5 µM | SF-539 > 12.5 µM | SK-MEL-28 > 12.5 µM | SK-MEL-5 > 12.5 µM | SK-OV-3 > 12.5 µM | SN12C > 12.5 µM | SNB-19 > 12.5 µM | SNB-75 > 12.5 µM | SW-620 > 12.5 µM | T47D > 12.5 µM | TK-10 > 12.5 µM | U-251 > 12.5 µM | UACC-257 > 12.5 µM | UACC-62 > 12.5 µM
active: SR 0.0269 µM
> 12.5 µM: HCT-15
